Results as given in patent US10167322B2, “Engineered albumin binding polypeptide” (AFFIBODY AB, priority 2013, dated 2019).
“And” between values parts separate entries of the source, which are not always exact repeats. Equal entries are not always repeated. Where two headings read alike, the source gives them in different places. Starred links: 1 amine or outer side, 2 acyl side, 3 side chain; linkers in the order of their positions; H or OH if unused. Positions of bridges follow the written chain, without caps; N, C: chain ends. No end group written: not given here. Pyridine(2,6-diCH2) = c1cc(C[*:1])nc(C[*:2])c1; mXylylene = c1cc(C[*:1])cc(C[*:2])c1; oXylylene = c1ccc(C[*:2])c(C[*:1])c1; X1 = O=C(C[*:1])[*:2]

Columns and labels:
[1] = target: T1, human serum albumin (HSA) (Homo sapiens, UniProt P02768); experiment: SPR biosensor (ProteOn XPR36) screening of binding to immobilized HSA; details: 50 nM polypeptide, 2500 RU immobilized HSA, 25 °C
Protocol: Biosensor binding analyses were performed on a ProteOn XPR36 instrument (Bio-Rad) at 25° C. using PBST (150 mM NaCl, 8 mM Na2HPO4, 2 mM NaH2PO4, 0.005% Tween20, pH 7.4) as running buffer at a flow rate of 50 μl min^−1. An injection of 30 μl of 20 mM HCl at a flow rate of 100 μl min^−1 was used for chip regeneration. In a screening experiment, the binding of all polypeptide variants to human serum albumin (HSA) was investigated. The proteins were diluted to 50 nM in running buffer and injected over a chip surface with 2500 RU of immobilized HSA. The association was studied for 300 s and the dissociation was followed for 7200 s (2 h). For data analysis, all samples were double referenced; the signal from a blank surface was first subtracted from the signal from the respective protein, and secondly the signal from an injection of PBST (running buffer) over the HSA surface was subtracted.

pepsin = target: T2, pepsin (Sus scrofa, UniProt P00791); experiment: Protease degradation analysis with pepsin (RP-HPLC of intact polypeptide); format: in vitro ADME, porcine; details: for Resistance towards degradation by pepsin, screening: 2 μg ml^−1 pepsin, pH around 2.6, 10 min; for Resistance towards degradation by pepsin, screening / AUC increase / resistance towards degradation by pepsin compared to PEP07830: 37 °C; for AUC increase / resistance towards degradation by pepsin compared to PEP07830: 0.5 μg ml^−1 pepsin, 0-60 min
T2 construct: purchased Sigma; host or cells: porcine gastric mucosa
T2 sequence (P00791 60-385): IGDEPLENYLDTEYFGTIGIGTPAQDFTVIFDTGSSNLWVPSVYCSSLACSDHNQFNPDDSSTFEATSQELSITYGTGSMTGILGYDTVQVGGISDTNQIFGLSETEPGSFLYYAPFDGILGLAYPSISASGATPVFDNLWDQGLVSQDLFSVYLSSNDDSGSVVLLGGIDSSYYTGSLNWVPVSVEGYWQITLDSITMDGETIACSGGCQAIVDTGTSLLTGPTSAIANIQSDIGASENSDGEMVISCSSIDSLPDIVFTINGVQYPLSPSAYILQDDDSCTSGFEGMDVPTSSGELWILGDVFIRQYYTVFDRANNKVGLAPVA
Protocol: (§1) Proteolytic degradation was studied using pepsin (obtained from porcine gastric mucosa, 3200-4500 U mg^−1, Sigma) and a mixture of trypsin (obtained from bovine pancreas, ≈37 U mg^−1, Sigma) and chymotrypsin (obtained from bovine pancreas, ≥40 U mg^−1, Sigma). In all degradation experiments, 5 μg protein in PBS (pH 7.4) at a concentration of 0.25 mg ml^−1 (50 μM) was used.
5 μg of each variant was transferred to a microcentrifuge tube. 32 μl 10 mM HCl with pepsin at a concentration of 3.25 μg ml^−1 or 0.81 μg ml^−1, resulting in a pH around 2.6 and a final pepsin concentration of 2 μg ml^−1 to be used for screening experiment and 0.5 μg ml^−1 for studying the degradation over time. In the screening experiment, the samples were incubated for 10 min at 37° C. before the enzyme was inactivated by addition of 5 μl 0.1 M NaOH, which raised the pH to above 9, and then the sample was put on ice. A reference sample of each protein was inactivated with NaOH before pepsin was added to the tube.
The degradation over time was monitored for PEP18049_CL, PEP14788_CL_A and the reference polypeptide PEP07830 by incubation for 3, 6, 12, 30 or 60 min at 37° C. before inactivation with NaOH. Reference samples, inactivated with NaOH before the pepsin was added to the tube, were incubated likewise.
(§2) All samples were analyzed by RP-HPLC using an analytical column (Zorbax 300SB-C18, 4.6×150 mm, 3.5 μm particle size, Agilent Technologies) and a gradient of 15-45% solvent B (solvent A: 0.1% TFA-H2O; solvent B: 0.1% TFA-CH3CN) over 25 min at a flow rate of 1.2 ml min^−1 and LC-ESI-MS on a 6520 Accurate Mass Q-TOF LC/MS.
(§3) The elution peaks containing the intact polypeptides were integrated and the area under curve was calculated. The degradation experiments over time were performed in triplicates. The integrated area of each sample was normalized to the mean area of the t=0 samples of that variant, the mean and standard error of the mean were calculated for each time point.
(§4) To quantify the stability improvement of the crosslinked variants, the AUC (area under curve) from the normalized charts was calculated for the three investigated variants. The AUC of the crosslinked variants was then compared to the AUC of the reference polypeptide.

trypsin and chymotrypsin = experiment: Protease degradation analysis with trypsin and chymotrypsin (RP-HPLC of intact polypeptide); format: in vitro ADME, bovine; details: for Resistance towards degradation by trypsin and chymotrypsin, screening / AUC increase / resistance towards degradation by trypsin together with chymotrypsin compared to PEP07830: 2.7 μg ml^−1 trypsin, 1.2 μg ml^−1 chymotrypsin, 37 °C; for Resistance towards degradation by trypsin and chymotrypsin, screening: PBS pH 7.4, 10 min; for AUC increase / resistance towards degradation by trypsin together with chymotrypsin compared to PEP07830: 0-60 min
Protocol: as §1
5 μg of each variant was transferred to a microcentrifuge tube. 32 μl PBS (pH 7.4) with trypsin at a concentration of 4.39 μg ml^−1 and chymotrypsin at a concentration of 1.95 μg ml^−1 was added to yield a final concentration of 2.7 μg ml^−1 of trypsin and 1.2 μg ml^−1 of chymotrypsin. In the screening experiment, the samples were incubated for 10 min at 37° C. before the enzyme was inactivated by addition of 3 μl 10% TFA and then the sample was put on ice. A reference sample of each protein was inactivated with TFA before the trypsin and chymotrypsin were added to the tube.
The degradation over time was monitored for PEP18049_CL, PEP14788_CL_A and the reference polypeptide PEP07830 by incubation for 3, 6, 12, 30, or 60 min at 37° C. before inactivation with TFA. As above, reference samples, inactivated with TFA before trypsin and chymotrypsin were added to the tube, were incubated likewise.
as §2, §3, §4

[2] = target: T1, human serum albumin (HSA); experiment: SPR biosensor (ProteOn XPR36) HSA binding kinetics, 1:1 Langmuir fit; details: for comparison only; for kon / koff: triplicate, mean (±SD), relative values; for kon: read-out: ka (association rate constant); for koff: read-out: kd (dissociation rate constant)
Protocol: The HSA binding kinetics of PEP18049_CL and the reference protein PEP07830 were further studied using a sensor chip with HSA immobilized on three different surfaces to between 1100 RU and 1600 RU. The proteins were diluted in running buffer (0.8, 1.6, 3.3, and 6.6 nM for PEP18049_CL and 1.0, 2.0, 4.0 and 8.0 nM for PEP07830) and injected over the three HSA surfaces and thus giving binding curves in triplicate. The association time was 300 s and the dissociation was followed for 36 000 s (10 h).
The kinetic parameters of the binding of PEP18049_CL and the reference protein PEP07830 to HSA were obtained from fitting the obtained sensorgrams to a 1:1 Langmuir binding model using the ProteOn Manager software version 3.1.0.6 (Bio-Rad). The average association rate constant (ka (M^−1 s^−1) and dissociation rate constant (kd (s^−1)) with standard deviation were calculated. From the average ka and the kd the dissociation equilibrium constant (KD (M)) was calculated (KD=kd/ka).

[3] = Circular dichroism variable temperature measurement (melting temperature); format: physicochemical; details: CD at 221 nm, 20-90 °C, 50 μM in PBS pH 7.4
Protocol: Polypeptides were dissolved in PBS (pH 7.4) to a concentration of 50 μM (approximately 0.25 mg ml^−1) and CD spectra and melting curves were collected on a Jasco J-810 spectropolarimeter (Jasco) using a cell with an optical path-length of 1 mm. Variable temperature measurements, VTM, were used to determine Tm. In these measurements, the […] was measured at 221 nm from 20° C. to 90° C., with a temperature slope of 5° C. min^−1. The secondary structure of each variant was analyzed by recording a spectrum ranging from 250 to 195 nm at 20° C., both before and after VTM.

[4] = LC-ESI-MS of degradation products
[5] = human, HSA immobilized on SPR sensor chip (ProteOn XPR36)

PEP18052_CL: SEQ ID NO:1771 (PEP18052), control polypeptide, double crosslinked (LAEAKEAANAELDSYGCSDFYKRLIDKCKTVEGVEALKDAILAAKP; double crosslinked; Engineered albumin binding polypeptide)
HSA binding in screening experiment [1]: completely lost their affinity for HSA

PEP18050_CL: SEQ ID NO:1769 (PEP18050), control polypeptide, crosslinked Lys5-Cys28 (LAEAKEAANAELDSYGVSDFYKRLIDKCKTVEGVEALKDAILAALP; Lys5-Cys28 crosslink; Engineered albumin binding polypeptide)
HSA binding in screening experiment [1]: completely lost their affinity for HSA

LAEAKEAANAELDSYGCSDFYKRLIDKAKTVEGVEALKDAILAACP-NH2 (linker 17-45 via mXylylene) [PEP14788_CL_B]
Resistance towards degradation by pepsin, screening (pepsin): no significant difference between these variants | Resistance towards degradation by trypsin and chymotrypsin, screening (trypsin and chymotrypsin): no significant difference between these variants

LAEAKEAANAELDSYGVSDFYKRLIDKAKTVEGVEALKDAILAALP-NH2 (C-terminus assumed) [PEP07830, reference compound]
Peptide bond rapidly cleaved by pepsin (major degradation products) (pepsin; [4]): between Leu42 and Ala43 | Peptide bond most susceptible for cleavage by trypsin and chymotrypsin (trypsin and chymotrypsin; [4]): between Tyr21 and Lys22 | Kd ([2]; human, KD=kd/ka from average ka and kd): 0.021 nM | kon ([2]; human): 190000 M⁻¹ s⁻¹ | koff ([2]; human): 4.1e-06 s⁻¹ | Kd ([2]; human, triplicates): ~0.021 nM

Ac-LAEAKEAANAELDSYGCSDFYKRLIDKAKTVEGVEALKDAILAAKP-NH2 (linker 17-45 via X1) [PEP18049_CL]
AUC increase / resistance towards degradation by pepsin compared to PEP07830 (pepsin): 17 fold | Resistance towards degradation by pepsin, screening (pepsin): increased resistance towards degradation | AUC increase / resistance towards degradation by trypsin together with chymotrypsin compared to PEP07830 (trypsin and chymotrypsin): 5 fold | Resistance towards degradation by trypsin and chymotrypsin, screening (trypsin and chymotrypsin): increased resistance towards degradation | Tm (melting temperature) [3]: 63 °C | kon [2, 5]: 620000 M⁻¹ s⁻¹ | koff [2, 5]: 1.5e-05 s⁻¹ | Kd ([2]; triplicates): ~0.024 nM and 0.024 nM | HSA binding in screening experiment [1]: fast on-rate and a two phase-like dissociation

LAEAKEAANAELDSYGCSDFYKRLIDKAKTVEGVEALKDAILAACP-NH2 (linker 17-45 via oXylylene) [PEP14788_CL_A]
AUC increase / resistance towards degradation by pepsin compared to PEP07830 (pepsin): 2.4 fold | Resistance towards degradation by pepsin, screening (pepsin): no significant difference between these variants | AUC increase / resistance towards degradation by trypsin together with chymotrypsin compared to PEP07830 (trypsin and chymotrypsin): 1.4 fold | Resistance towards degradation by trypsin and chymotrypsin, screening (trypsin and chymotrypsin): no significant difference between these variants

PEP18053_CL: SEQ ID NO:1772 (PEP18053), control polypeptide, double crosslinked (CAEAKEAANAELDSYGCSDFYKRLIDKAKTVEGVEALKDAILAAKP; double crosslinked; Engineered albumin binding polypeptide)
HSA binding in screening experiment [1]: weak binding

PEP18051_CL: SEQ ID NO:1770 (PEP18051), control polypeptide, crosslinked Cys1-Lys29 (CAEAKEAANAELDSYGVSDFYKRLIDKAKTVEGVEALKDAILAALP; Cys1-Lys29 crosslink; Engineered albumin binding polypeptide)
HSA binding in screening experiment [1]: slower on-rate, but also seemed to have a very slow off-rate indicating a high affinity for HSA

LAEAKEAANAELDSYGCSDFYKRLIDKAKTVEGVEALKDAILAACP-NH2 (linker 17-45 via Pyridine(2,6-diCH2)) [PEP14788_CL_E]
Resistance towards degradation by pepsin, screening (pepsin): no significant difference between these variants | Resistance towards degradation by trypsin and chymotrypsin, screening (trypsin and chymotrypsin): no significant difference between these variants
